Measured values from PubChem BioAssay AID248 (DTP/NCI, 2004).
Inconclusive results and toxic doses are left out.

System: L1210 leukemia ip in BDF1 mice, survival T/C
Experiment: NCI In Vivo Anticancer Drug Screen. Data for tumor model L1210 Leukemia (intraperitoneal) in B6D2F1 (BDF1) mice
Conditions: endpoint: mean survival time, higher = longer survival
Outline: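 Tumor was transplanted into mice, which were then dosed with test compound or vehicle alone. Survival was recorded for each group, and the treated figure was expressed relative to the control figure.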

[1] = dose: 100.0 mg/kg/injection, schedule: Q01DX001 (ip), vehicle: saline
[2] = dose: 200.0 mg/kg/injection, schedule: Q01DX001 (ip), vehicle: saline
[3] = dose: 100.0 mg/kg/injection, schedule: Q01DX001 (ip), vehicle: carboxymethylcellulose (CMC)
[4] = dose: 200.0 mg/kg/injection, schedule: Q01DX001 (ip), vehicle: carboxymethylcellulose (CMC)
[5] = dose: 50.0 mg/kg/injection, schedule: Q01DX009 (ip), vehicle: saline with Tween-80
[6] = dose: 100.0 mg/kg/injection, schedule: Q01DX009 (ip), vehicle: saline with Tween-80
[7] = dose: 200.0 mg/kg/injection, schedule: Q01DX009 (ip), vehicle: saline with Tween-80

Q: How did the T/C (dose: 75.0 mg/kg/injection, schedule: Q04DX003 (ip), vehicle: saline) turn out when `Cc1cc(Cl)cc(C)c1O` was run?
A: 114 % of control

Q: And the T/C (dose: 150.0 mg/kg/injection, schedule: Q04DX003 (ip), vehicle: saline)?
A: 100 % of control

Q: And the T/C (dose: 300.0 mg/kg/injection, schedule: Q04DX003 (ip), vehicle: saline)?
A: 112 % of control

Q: `CN(C)CCCN1c2ccccc2Sc2cc(C=[N+](C)C)ccc21` was tested. Which T/C (dose: 100.0 mg/kg/injection, schedule: Q04DX003 (sc), vehicle: olive oil, sesame oil, peanut oil) did it give?
A: 103 % of control

Q: And the T/C (dose: 200.0 mg/kg/injection, schedule: Q04DX003 (sc), vehicle: olive oil, sesame oil, peanut oil)?
A: 98 % of control

Q: What about the T/C (dose: 400.0 mg/kg/injection, schedule: Q04DX003 (sc), vehicle: olive oil, sesame oil, peanut oil) of the same compound?
A: 108 % of control

Q: How did the T/C (dose: 75.0 mg/kg/injection, schedule: Q01DX001 (ip), vehicle: saline) turn out when `O=c1[nH]c(Cl)ncc1F` was run?
A: 95 % of control

Q: What about the T/C (dose: 150.0 mg/kg/injection, schedule: Q01DX001 (ip), vehicle: saline) of the same compound?
A: 96 % of control

Q: And the T/C (dose: 300.0 mg/kg/injection, schedule: Q01DX001 (ip), vehicle: saline)?
A: 102 % of control

Q: `C/C=C/C(O)(C(=O)OCC)C(C)C` (stereo unspecified) was tested. Which T/C [1] did it give?
A: 111 % of control

Q: What about the T/C [2] of the same compound?
A: 96 % of control

Q: What about the T/C (dose: 400.0 mg/kg/injection, schedule: Q01DX001 (ip), vehicle: saline) of the same compound?
A: 100 % of control

Q: Which T/C (dose: 100.0 mg/kg/injection, schedule: Q01DX001 (ip), vehicle: saline with Tween-80) does the source give for `Fc1c(F)c(F)c([Si](c2c(F)c(F)c(F)c(F)c2F)(c2c(F)c(F)c(F)c(F)c2F)c2c(F)c(F)c(F)c(F)c2F)c(F)c1F` here?
A: 96 % of control

Q: What about the T/C (dose: 200.0 mg/kg/injection, schedule: Q01DX001 (ip), vehicle: saline with Tween-80) of the same compound?
A: 91 % of control

Q: What about the T/C (dose: 400.0 mg/kg/injection, schedule: Q01DX001 (ip), vehicle: saline with Tween-80) of the same compound?
A: 86 % of control

Q: Which T/C (dose: 100.0 mg/kg/injection, schedule: Q01DX001 (sc), vehicle: steriod suspending solution) does the source give for `O=C1CCCC2C1CCC1C3CCC(O)CC3CCC21` (stereo unspecified) here?
A: 91 % of control

Q: What about the T/C (dose: 200.0 mg/kg/injection, schedule: Q01DX001 (sc), vehicle: steriod suspending solution) of the same compound?
A: 93 % of control

Q: And the T/C (dose: 400.0 mg/kg/injection, schedule: Q01DX001 (sc), vehicle: steriod suspending solution)?
A: 95 % of control

Q: Which results are given for `OCC1OC(n2ccc3cncnc32)C(O)C1O` (stereo unspecified)?
A: T/C (dose: 5.0 mg/kg/injection, schedule: Q01DX001 (ip), vehicle: saline): 106 % of control; T/C (dose: 10.0 mg/kg/injection, schedule: Q01DX001 (ip), vehicle: saline): 109 % of control; T/C (dose: 20.0 mg/kg/injection, schedule: Q01DX001 (ip), vehicle: saline): 106 % of control; T/C (dose: 40.0 mg/kg/injection, schedule: Q01DX001 (ip), vehicle: saline): 106 % of control

Q: What does the source list for `CCc1ccc(N=Nc2ccccc2)cc1`?
A: T/C [3]: 105 % of control; T/C [4]: 96 % of control; T/C (dose: 400.0 mg/kg/injection, schedule: Q01DX001 (ip), vehicle: carboxymethylcellulose (CMC)): 105 % of control

Q: What does the source list for `c1ccc(N=Nc2ccc[nH]2)cc1`?
A: T/C (dose: 50.0 mg/kg/injection, schedule: Q01DX009 (ip), vehicle: acetone): 98 % of control; T/C (dose: 100.0 mg/kg/injection, schedule: Q01DX009 (ip), vehicle: acetone): 102 % of control

Q: What does the source list for `CC(=O)Cc1cc(=O)[nH]c(=S)[nH]1`?
A: T/C [5]: 95 % of control; T/C [6]: 92 % of control; T/C [7]: 92 % of control

Q: For `OCC1OC(n2cc(Br)c3c2ncn2ccnc32)C(O)C1O` (stereo unspecified), which T/C (dose: 50.0 mg/kg/injection, schedule: Q01DX005 (ip), vehicle: saline) is on record?
A: 98 % of control

Q: What about the T/C (dose: 100.0 mg/kg/injection, schedule: Q01DX005 (ip), vehicle: saline) of the same compound?
A: 104 % of control

Q: What about the T/C (dose: 200.0 mg/kg/injection, schedule: Q01DX005 (ip), vehicle: saline) of the same compound?
A: 104 % of control

Q: For `CCCCCCCCCCCCCCCN(CCCl)CCCl`, which T/C [3] is on record?
A: 93 % of control

Q: What about the T/C [4] of the same compound?
A: 96 % of control

Q: Which results are given for `O=C(O)c1cc2ccc3ccccc3c2s1`?
A: T/C [1]: 87 % of control; T/C [2]: 88 % of control

Q: How did the T/C (dose: 12.5 mg/kg/injection, schedule: Q01DX009 (ip), vehicle: saline with Tween-80) turn out when `CCCCCCCCN(c1ccc(C(=O)NC(CCC(=O)OCC)C(=O)OCC)cc1)S(=O)(=O)c1ccc(C)cc1` (stereo unspecified) was run?
A: 95 % of control

Q: And the T/C (dose: 25.0 mg/kg/injection, schedule: Q01DX009 (ip), vehicle: saline with Tween-80)?
A: 95 % of control

Q: And the T/C [5]?
A: 95 % of control

Q: What does the source list for `Cc1ccc([N+](=O)[O-])cc1NC(=O)Nc1ccccc1F`?
A: T/C (dose: 100.0 mg/kg/injection, schedule: Q01DX009 (ip), vehicle: Klucel (hydroxypropylcellulose) (HPC)): 89 % of control; T/C (dose: 200.0 mg/kg/injection, schedule: Q01DX009 (ip), vehicle: Klucel (hydroxypropylcellulose) (HPC)): 92 % of control; T/C (dose: 400.0 mg/kg/injection, schedule: Q01DX009 (ip), vehicle: Klucel (hydroxypropylcellulose) (HPC)): 87 % of control

Q: What does the source list for `CC(=O)N/N=C/c1cccc([N+](=O)[O-])c1`?
A: T/C [5]: 102 % of control; T/C [6]: 97 % of control; T/C [7]: 94 % of control
